This note sets out measurements from patent US7771711B2, “Sphingolipids' polyalkylamines conjugates” (Yissum Research Development Company of The Hebrew …, priority 2003, dated 2010).

For data set [1] the following is noted: DPH fluorescence increase upon aggregation.
Experimental: DPH dissolved in fetrahydrofuran was added at concentration of 0.25 ml %, to a range of concentrations of lipid dispersions and the fluorescence was recorded using 360 nm excitation and 430 nm emission on Perkin Elmer LS-50B. Then the fluorescence was plotted as function of lipid concentrations, and CMC point was detected as change of the slope of the curve by intersection of two straight lines above or below the CMC region.
Data set [2] in a line: ζ-potential by Zetasizer in 10 mM NaCl. The format is physicochemical. The note with it: 25° C., 10 mM NaCl (pH 6.7). The protocol:
Liposomes' and micelles' ζ-potential was measured at 25° C. by the mobility of the particles in the applied electrical field using a Zetasizer 3000 HAS, Malvern Instruments, Malvern, UK, by diluting an aliquot of 40 μL in 20 mL of 10 mM NaCl (pH 6.7) and passing the solutions before measurement through a 0.2-μm syringe filter (Minisart, Sartorius, Germany). ζ-potential reflects the electrical potential at the plane of sheer (further away from the actual surface), which is sensed by the HCPE and C17HC.

Data set [3] can be described thus: Assembly size by dynamic light scattering (ALV back scattering). It counts as physicochemical.
Data set [4] is described as follows: Electrostatics from dissociation curve of bilayer-incorporated hydroxycoumarin probes (HCPE, C17HC). The settings on record: for pKa C17HC: apparent pKa of hydroxycoumarin probe C17HC incorporated in the assemblies; for Surface potential C17HC / Surface potential HCPE: from shift of pKa of HC, Boltzmann equation; for Surface potential C17HC / Surface pH C17HC: probe C17HC; for pKa HCPE: apparent pKa of hydroxycoumarin probe HCPE incorporated in the assemblies; for Surface potential HCPE / Surface pH HCPE: probe HCPE. It counts as physicochemical. The protocol: The fluorescence excitation of the fluorophore 7-hydroxycoumarin (HC) moieties at 405 nm for HCPE and 380 nm for C17HC reflects the amount of the ionized species, while the excitation at 370 nm for HCPE and 330 nm for C17HC is the pH-independent isosbestic point, reflects the total amount of probe in the liposomes and micelles. Fluorescence emission was determined at 450 nm for all the above excitations. These two ratios (405/370 for HCPE, and 380/330 for C17HC) give the degree of ionization of HC fluoropore. The titration curve of HC, which is generated by plotting fluorescence excitation intensity ratio I405/I370 for HCPE and I380/I330 for C17HC at broad range of bulk pH, enables to calculate the apparent pKa of HC in HCPE and C17HC, respectively. The pKa of HC in the liposomal bilayer and/or in the micelles is calculated by fitting the above titration curve to the modified Henderson -Hasselbach equation, as described before [Zuidam & Barenholz (1997) ibid.]. The surface potential is then determined from the shift of pKa of HC that dramatically occurs in the strongly basic environment of cationic bilayer, according to the Boltzmann equation [Zuidam & Barenholz (1997) ibid.]

For data set [5] the following is noted: base.
The nature of data set [6]: Follow up (storage) assays of CCS lipid assemblies in HEPES pH 7.4 at 4° C. It counts as physicochemical. The protocol: FIGS. 3A-3D show the results of the different follow up assays (follow up for 23 days). The follow up assay were based on TNBS test, which is a quantitative assay based on color reaction of TNBS reagent with primary amines.
The level of primary amines was determined with storage time in TNBS binding and described as % of freshly hydrated preparation. The change in Zeta potential, the change in the HCPE fluorescence 450 nm/370 mnm excitation ratio, and the change in size of the lipid assemblies (liposomes or micelles) formed was determined.
At 21 day, there were 6 time points of storage, which were assayed simultaneously for the following parameters: […]

Data set [7] can be described thus: Level of hydration by Laurdan excitation general polarization. It counts as physicochemical. The note with it: 20 mM HEPES pH 7.4, 25° C. The protocol: Hydration level of the different CCS-based lipid assemblies before and after the addition of plasmid DNA was determined by monitoring changes of “Laurdan excitation general polarization” according to which the higher the value obtained, the lower is the level of hydration.
6-Dodecanoyl-2-dimethylaminonaphthalene (Laurdan), purchased from Lambda (Graz, Austria), was used to follow changes in hydration level of the liposome bilayer. The naphthalene fluorophore of this probe is located at the hydrophilichydrophobic interface of the bilayer, and its 12-carbon chain is aligned parallel to the bilayer lipid acyl chains. When associated with lipids, Laurdan excitation and emission spectra depend strongly on the phase of the lipid. […] The lipid phases and level of hydration can be described by a Laurdan steady-state fluorescence parameter referred to as generalized polarization (GP) [Hirsch-Lerner D, Barenholz Y. Biochim Biophys Acta. […] Laurdan GP fluorescence spectra in lipid vesicles are dependent on the number of water molecules around the fluorescent moiety of Laurdan. Excitation GP was calculated according to the expression: GP340=(I440−I490)/(I440+I490) (1) where I440 and I490 are the intensities of fluorescence emission at wavelengths 440 and 490 nm and the excitation wavelength 340 nm. […]

[8] abbreviates: listed as CCS Acetate (micelles).
Setting [9] is: listed as CCS Chloride (micelles).

Where a name gives a salt, the structure may show the parent alone.

For the compound `CCCCCCCCCCCCC/C=C/[C@@H](O)[C@H](COC(=O)NCCCNCCCCNCCCN)NC(=O)CCCCCCCCCCCCCCC` [CCS Acetate salt, N-palmitoyl D-erythro sphingosyl-1-carbamoyl spermine], the “Critical Micelle Concentration (CMC)” value in data set [1] turned out to be 5 µM. Besides, the ζ-potential in data set [2] (setting [8]) was 40. Moreover, in data set [3], the “Assembly size, diameter (mass-weight)” value is reported as “micelles 6 nm;”. Besides, in data set [4] (setting [8]), the “pKa C17HC” value was 4.75, the “Surface potential C17HC” value came to 245.8 mV and the “Surface pH C17HC” value was determined as 11.5.
Consider `CCCCCCCCCCCCC/C=C/[C@@H](O)[C@H](COC(=O)NCCCNCCCCNCCCN)NC(=O)CCCCCCCCCCCCCCC` [CCS non-protonated, N-palmitoyl D-erythro sphingosyl-1-carbamoyl spermine], for which the ζ-potential in data set [2] was 34. In addition, in data set [4], the “pKa HCPE” value amounted to 7.23, the “Surface potential HCPE” value came to 203.06 mV and the “Surface pH HCPE” value is 10.87.
As for `CCCCCCCCCCCCC/C=C/[C@@H](O)[C@H](COC(=O)NCCCNCCCCNCCCN)NC(=O)CCCCCCCCCCCCCCC` [CCS Chloride salt, N-palmitoyl D-erythro sphingosyl-1-carbamoyl spermine], in data set [1], the “Critical Micelle Concentration (CMC)” value is 5 µM. The ζ-potential in data set [2] (setting [9]) worked out at 46.5. The “Assembly size, diameter (mass-weight)” value in data set [3] is recorded as “micelles 25 nm;”. In data set [4] (setting [9]), the “pKa C17HC” value is 5.61, the “pKa HCPE” value is reported as 6.56, the “Surface potential C17HC” value came to 195.4 mV and the “Surface potential HCPE” value came out at 242.3 mV. Further, in data set [4] (setting [9]), the “Surface pH C17HC” value is 10.64 and the “Surface pH HCPE” value came to 11.54.
On to `CCCCCCCCCCCCC/C=C/[C@@H](O)[C@H](COC(=O)NCCCNCCCCNCCCN)NC(=O)CCCCCCCCCCCCCCC` [CCS, N-palmitoyl D-erythro sphingosyl-1-carbamoyl spermine], for which the Solubility in ethanol entry in data set [5] is reported as “exhibited”. Moreover, in data set [6] (HEPES buffer pH 7.4, 4° C., 23 days), the “Zeta potential during storage” value is given as “no substantial change”. In data set [6] (HEPES pH 7.4, 4° C.), the “Change in time in diameter of lipid assemblies during storage” value was “remained relatively small” and the “Period of chemical stability of dispersions in aqueous phase” value is “at least 23 days”. Further, the “Surface pH and electrical surface potential over storage (HCPE 405/370 excitation ratio)” value in data set [6] (HEPES pH 7.4, 4° C., entire period of storage) is reported as “unchanged”. Further, the “Level of primary amines upon storage (TNBS binding)” value in data set [6] (HEPES pH 7.4, 4° C., follow up for 23 days) is “no substantial change”. Also, the “Hydration state before addition of DNA (Laurdan GP)” value in data set [7] is “high hydration state”. Moreover, the “Hydration state upon addition of DNA (Laurdan GP)” value in data set [7] (formation of lipoplexes) is recorded as “become dehydrated”.
